Experimental data published in article PMC9928189 (ACS catalysis, 2022).
Residue numbers refer to the chain shown, from its start.

What was measured:
Assay in all cases: X-ray crystal structure
Format in all cases: binding
MroM-A2 = target: T1, MroM-A2 (Mycena rosella, UniProt A0A9X9ZA29); conditions: 1.86 Å; core peptide A2 fused and N-methylated
T1 sequence (A0A9X9ZA29 4-400): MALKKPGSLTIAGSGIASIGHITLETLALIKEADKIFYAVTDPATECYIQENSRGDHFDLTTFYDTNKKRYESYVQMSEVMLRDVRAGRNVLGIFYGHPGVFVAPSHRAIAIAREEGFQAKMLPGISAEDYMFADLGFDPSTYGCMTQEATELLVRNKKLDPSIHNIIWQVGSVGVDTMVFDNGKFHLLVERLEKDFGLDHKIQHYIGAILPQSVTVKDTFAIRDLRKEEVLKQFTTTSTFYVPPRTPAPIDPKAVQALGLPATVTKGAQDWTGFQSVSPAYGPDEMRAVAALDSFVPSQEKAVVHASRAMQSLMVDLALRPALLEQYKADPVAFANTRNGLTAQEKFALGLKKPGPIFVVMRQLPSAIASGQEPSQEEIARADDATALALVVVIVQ

MroM-A1 = target: T2, MroM-A1 (Mycena rosella, UniProt A0A9X9ZA27); conditions: 1.79 Å; core peptide A1 fused and N-methylated
T2 sequence (A0A9X9ZA27 4-400): T1 sequence (A0A9X9ZA29 4-400) with L389F, A390I, L391I, V392I, V393Y, V394I, I395V, V396Q, Q397G

MroM-CspL = target: T3, MroM-CspL (Mycena rosella, UniProt A0A9X9ZA30); conditions: 1.93 Å; cyclosporin-like core fused and N-methylated
T3 sequence (A0A9X9ZA30 4-402): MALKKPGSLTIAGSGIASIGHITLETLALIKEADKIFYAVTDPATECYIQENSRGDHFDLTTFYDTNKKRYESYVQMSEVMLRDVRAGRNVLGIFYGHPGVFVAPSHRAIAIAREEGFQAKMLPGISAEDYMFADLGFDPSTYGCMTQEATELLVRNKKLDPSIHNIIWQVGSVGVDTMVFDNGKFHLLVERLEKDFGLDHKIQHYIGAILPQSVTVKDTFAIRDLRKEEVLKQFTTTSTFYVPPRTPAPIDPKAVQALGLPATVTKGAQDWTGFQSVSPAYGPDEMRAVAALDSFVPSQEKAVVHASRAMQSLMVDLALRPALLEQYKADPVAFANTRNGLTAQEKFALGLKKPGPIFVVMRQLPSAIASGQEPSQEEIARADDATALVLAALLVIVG

Nc1ncnc2c1ncn2[C@@H]1O[C@H](CSCC[C@H](N)C(=O)O)[C@@H](O)[C@H]1O [S-adenosylhomocysteine]
X-ray crystal structure (MroM-A2): Each structure was determined in complex with product S-adenosylhomocysteine (SAH) | X-ray crystal structure (MroM-A1): Each structure was determined in complex with product S-adenosylhomocysteine (SAH) | X-ray crystal structure (MroM-CspL): Each structure was determined in complex with product S-adenosylhomocysteine (SAH)
